Measured values taken from PubChem BioAssay AID1918995 (Molecular Pharmacology Branch, DTP, NCI, 2023).
Values belong to the molecule of their own block, whether it stands above or below them.

Tested on: 324938-238-R-J1-PDC complex spheroid growth, % test/control
Assay: Anticancer human tumor 324938-238-R-J1-PDC patient-derived bladder carcinoma cell line growth inhibition [AhR]
Details: for IC50: curve of first compound; for viability, T/C: stronger effect = lower value
Excerpt: Multicellular complex tumor spheroid response to aryl hydrocarbon receptor antagonists in combination with a variety of drugs and investigational agents in selected tumor cell lines
The current study was undertaken to assess response to aryl hydrocarbon receptor antagonists in combination with standard-of-care drugs and investigational agents in solid tumor complex spheroid models. Complex spheroids include a stromal component modeled by human endothelial cells (HUVEC) and fibroblasts modeled by human mesenchymal stem cells (MSCs). The concentration ranges selected for each drug and investigational agent were based upon clinically achievable concentrations if the clinical Cmax of the agent was known.
Compounds. The drugs and investigational agents: BAY 2416964 (NSC825713), GNF351 (NSC835774), CH-223191 (NSC835775), CPI-455 (NSC825282), aza-TdCyd (NSC777586), decitabine (NSC127716), belinostat (NSC758774), entinostat (NSC756642), pevonedistat (NSC761192), tazemetostat (NSC777109), talazoparib (NSC765396), olaparib (NSC753686), selinexor (NSC780203), nedisertib (M3814, NSC802822), bortezomib (NSC756655), venetoclax (NSC766270), doxorubicin (NSC123127), elimusertib (BAY189344, NSC800525), ceralasertib (AZD6738, NSC777638), TAK-243 (NSC785004), alisertib (NSC759677), etoposide (NSC141540), topotecan (NSC609699), eribulin (NSC707389), gemcitabine (NSC613327), carboplatin (NSC241240), cisplatin (NSC119875), and SN-38 (NSC673596) were obtained from the National Cancer Institute (NCI) Developmental Therapeutics Program Chemical Repository (32). The FDA-approved anticancer drug set is available from the Developmental Therapeutics Program at https://dtp.cancer.gov/organization/dscb/obtaining/available plates.htm. […] The stock solutions were prepared in dimethyl sulfoxide (DMSO, Sigma-Aldrich, St. Louis, MO, cat. D2650), except for the platinum compounds which were prepared in saline (Quality Biological, Gaithersburg, MD, cat. 114-055-101), at 800-fold the tested concentration and stored at -70 degrees C prior to their use. All drugs and investigational agents were tested over a range starting from a high concentration at or near the clinical Cmax and decreasing in half-log increments. If the clinical Cmax for an agent had not been determined, the highest concentration tested was 10 microM (Table 1).
Cell Culture. All cells were maintained in an incubator at 37 degrees C and 5% CO2 with 95% humidity. The PDC lines were cultured according to standard operating procedures established by the NCI PDMR (https://pdmr.cancer.gov). Briefly, all PDCs were thawed and cultured in Matrigel-coated flasks prepared with a working solution of 1X Ham's F-12 nutrient mix, without supplementation (Invitrogen, Waltham, MA, cat. 11765054), 100 U/mL penicillin-streptomycin (Invitrogen, cat. 15140122), and 2.5% Matrigel (Corning Inc., Corning, NY, cat. 354248) for the first three passages. All PDCs were cultured in complete DMEM/F-12 media containing advanced DMEM/F-12 (Invitrogen, cat. 12634028), 4.9% defined fetal bovine serum, heat inactivated (HyClone Laboratories Inc., Logan, UT, cat. SH30070.03HI), 389 ng/mL hydrocortisone (Sigma-Aldrich, cat. H4001), 9.7 ng/mL human EGF recombinant protein (Invitrogen, cat. PHG0313), 23.4 microg/mL adenine (Sigma-Aldrich, cat. A2786), 97.3 U/mL penicillin-streptomycin (Invitrogen, cat. 15140122), 1.9 mM L-glutamine (Invitrogen, cat. 25030081), and 9.7 microM Y-27632 dihydrochloride (Tocris Bioscience, Bristol, United Kingdom, cat. 1254). The PDCs were cultured in complete DMEM/F12 media without 10 microM Y-27632 dihydrochloride for at least two passages prior to the screen. The established cell lines NCI-H1341 and […] were cultured in DMEM/F-12, HEPES (Invitrogen, cat. 11330032), 5% defined fetal bovine serum (HyClone Laboratories Inc., cat. SH30070.03), ITS premix universal culture supplement [insulin (5 microg/mL), transferrin (5 microg/mL), and selenious acid (5 ng/mL)] […]

[1] = second compound 0.1 µM, first compound 0.0316 µM
[2] = second compound 0.1 µM, first compound 0.1 µM
[3] = second compound 0.1 µM, first compound 0.316 µM
[4] = second compound 0.1 µM, first compound 1 µM
[5] = second compound 0.1 µM, first compound 3.16 µM
[6] = second compound 0.1 µM, first compound 10 µM
[7] = second compound 0.316 µM, first compound 0.0316 µM
[8] = second compound 0.316 µM, first compound 0.1 µM
[9] = second compound 0.316 µM, first compound 0.316 µM
[10] = second compound 0.316 µM, first compound 1 µM
[11] = second compound 0.316 µM, first compound 3.16 µM
[12] = second compound 0.316 µM, first compound 10 µM
[13] = second compound 1 µM, first compound 0.0316 µM
[14] = second compound 1 µM, first compound 0.1 µM
[15] = second compound 1 µM, first compound 0.316 µM
[16] = second compound 1 µM, first compound 1 µM
[17] = second compound 1 µM, first compound 3.16 µM
[18] = second compound 1 µM, first compound 10 µM
[19] = second compound 3.16 µM, first compound 0.0316 µM
[20] = second compound 3.16 µM, first compound 0.1 µM
[21] = second compound 3.16 µM, first compound 0.316 µM
[22] = second compound 3.16 µM, first compound 1 µM
[23] = second compound 3.16 µM, first compound 3.16 µM
[24] = second compound 3.16 µM, first compound 10 µM
[25] = second compound 10 µM, first compound 0.0316 µM
[26] = second compound 10 µM, first compound 0.1 µM
[27] = second compound 10 µM, first compound 0.316 µM
[28] = second compound 10 µM, first compound 1 µM
[29] = second compound 10 µM, first compound 3.16 µM
[30] = second compound 10 µM, first compound 10 µM
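Note: spheroids exposed to agents for seven days before viability read.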

IC50 (second compound 0.1 µM): 2230 nM | IC50 (second compound 0.316 µM): 1740 nM | IC50 (second compound 1 µM): 3830 nM | IC50 (second compound 3.16 µM): 2750 nM | IC50 (second compound 10 µM): 3090 nM
SMILES: Nc1ccccc1NC(=O)c1ccc(CNC(=O)OCc2cccnc2)cc1 + Cc1ccccc1N=Nc1ccc(NC(=O)c2ccnn2C)c(C)c1
viability, T/C [1]: 104% | viability, T/C [2]: 118% | viability, T/C [3]: 98.1% | viability, T/C [4]: 62.1% | viability, T/C [5]: 48.6% | viability, T/C [6]: 38.3% | viability, T/C [7]: 93.7% | viability, T/C [8]: 110% | viability, T/C [9]: 104% | viability, T/C [10]: 55.5% | viability, T/C [11]: 50.2% | viability, T/C [12]: 37.8% | viability, T/C [13]: 91.8% | viability, T/C [14]: 94.5% | viability, T/C [15]: 85.8% | viability, T/C [16]: 64.6% | viability, T/C [17]: 56% | viability, T/C [18]: 38% | viability, T/C [19]: 82.9% | viability, T/C [20]: 102% | viability, T/C [21]: 79.1% | viability, T/C [22]: 58.4% | viability, T/C [23]: 53.7% | viability, T/C [24]: 43.1% | viability, T/C [25]: 86.8% | viability, T/C [26]: 91.4% | viability, T/C [27]: 77.4% | viability, T/C [28]: 57.7% | viability, T/C [29]: 56.4% | viability, T/C [30]: 40.5%

IC50 (second compound 0.1 µM): 76.2 nM | IC50 (second compound 0.316 µM): 79.1 nM | IC50 (second compound 1 µM): 72.8 nM | IC50 (second compound 3.16 µM): < 31.6 nM | IC50 (second compound 10 µM): < 31.6 nM
SMILES: COc1cc(Nc2ncc3c(n2)-c2ccc(Cl)cc2C(c2c(F)cccc2OC)=NC3)ccc1C(=O)O + CC(CO)NC(=O)c1cc(-c2ccc(Cl)cc2)nn(-c2cnn(C)c2)c1=O
viability, T/C [1]: 77% | viability, T/C [2]: 41.7% | viability, T/C [3]: 23.5% | viability, T/C [4]: 23.6% | viability, T/C [5]: 24.7% | viability, T/C [6]: 31% | viability, T/C [7]: 71.7% | viability, T/C [8]: 44.5% | viability, T/C [9]: 27.4% | viability, T/C [10]: 25.4% | viability, T/C [11]: 23.8% | viability, T/C [12]: 30.1% | viability, T/C [13]: 60.1% | viability, T/C [14]: 46.1% | viability, T/C [15]: 27.6% | viability, T/C [16]: 28.6% | viability, T/C [17]: 26.9% | viability, T/C [18]: 29.2% | viability, T/C [19]: 49.4% | viability, T/C [20]: 42.5% | viability, T/C [21]: 30% | viability, T/C [22]: 25.7% | viability, T/C [23]: 28.2% | viability, T/C [24]: 29.8% | viability, T/C [25]: 54.7% | viability, T/C [26]: 40.4% | viability, T/C [27]: 32.8% | viability, T/C [28]: 34.9% | viability, T/C [29]: 31.9% | viability, T/C [30]: 39.7%

IC50 (second compound 0.1 µM): 123 nM | IC50 (second compound 0.316 µM): 138 nM | IC50 (second compound 1 µM): 135 nM | IC50 (second compound 3.16 µM): 96.2 nM | IC50 (second compound 10 µM): 125 nM
SMILES: O=C(C=Cn1cnc(-c2cc(C(F)(F)F)cc(C(F)(F)F)c2)n1)NNc1cnccn1 + CC(CO)NC(=O)c1cc(-c2ccc(Cl)cc2)nn(-c2cnn(C)c2)c1=O
viability, T/C (second compound 0.1 µM, first compound 0.00949 µM): 83.2% | viability, T/C (second compound 0.1 µM, first compound 0.03 µM): 77.4% | viability, T/C (second compound 0.1 µM, first compound 0.0949 µM): 51.8% | viability, T/C (second compound 0.1 µM, first compound 0.3 µM): 34.9% | viability, T/C (second compound 0.1 µM, first compound 0.949 µM): 17.8% | viability, T/C (second compound 0.1 µM, first compound 3 µM): 11.8% | viability, T/C (second compound 0.316 µM, first compound 0.00949 µM): 75.7% | viability, T/C (second compound 0.316 µM, first compound 0.03 µM): 87.5% | viability, T/C (second compound 0.316 µM, first compound 0.0949 µM): 53.8% | viability, T/C (second compound 0.316 µM, first compound 0.3 µM): 33.5% | viability, T/C (second compound 0.316 µM, first compound 0.949 µM): 19.8% | viability, T/C (second compound 0.316 µM, first compound 3 µM): 12.6% | viability, T/C (second compound 1 µM, first compound 0.00949 µM): 82.3% | viability, T/C (second compound 1 µM, first compound 0.03 µM): 76.4% | viability, T/C (second compound 1 µM, first compound 0.0949 µM): 58% | viability, T/C (second compound 1 µM, first compound 0.3 µM): 31.1% | viability, T/C (second compound 1 µM, first compound 0.949 µM): 23.1% | viability, T/C (second compound 1 µM, first compound 3 µM): 14.2% | viability, T/C (second compound 3.16 µM, first compound 0.00949 µM): 69.1% | viability, T/C (second compound 3.16 µM, first compound 0.03 µM): 65% | viability, T/C (second compound 3.16 µM, first compound 0.0949 µM): 50.7% | viability, T/C (second compound 3.16 µM, first compound 0.3 µM): 27.2% | viability, T/C (second compound 3.16 µM, first compound 0.949 µM): 19% | viability, T/C (second compound 3.16 µM, first compound 3 µM): 12.8% | viability, T/C (second compound 10 µM, first compound 0.00949 µM): 62% | viability, T/C (second compound 10 µM, first compound 0.03 µM): 61.8% | viability, T/C (second compound 10 µM, first compound 0.0949 µM): 57.7% | viability, T/C (second compound 10 µM, first compound 0.3 µM): 31.3% | viability, T/C (second compound 10 µM, first compound 0.949 µM): 24.8% | viability, T/C (second compound 10 µM, first compound 3 µM): 11.4%
